This is an account of results in patent publication US20040062815A1, “Bdellosomes” (priority 2000, published 2004).

Data set [1] is classed as physicochemical. From the text: In addition, the simplicity of the synthesis of the bdellosomes resulting from the monomolecular structure of the particle is particularly noteworthy.
Another data set deals with trypanosomes. Nature of the data set: inhibition of the growth of trypanosomes by free daunomycin. It counts as cell-based, Trypanosoma brucei brucei.

Consider “polyvinyl(te/o-alanylpolylactide)ate[a=4000, b=100] [bdellosomes]”, for which, in data set [1], the Stability entry is recorded as “high”.

In the case of `COc1cccc2c1C(=O)c1c(O)c3c(c(O)c1C2=O)C[C@@](O)(C(C)=O)C[C@@H]3O[C@H]1C[C@H](N)[C@H](O)[C@H](C)O1` [daunomycin], the “concentration in the medium causing inhibition of the growth of trypanosomes” value in the data set on trypanosomes is reported as ≥ 10^−7 mol.
